Data: US8008329B2 (Dong Wha Pharmaceutical Co., Ltd., priority 2008, dated 2011)
Values joined by “and” are separate entries in the source; they are usually repeats but may differ in a detail not shown here. Equal entries are not always repeated. Marks after values point to notes of the source that are not given here.

Tests used:
[1] = test system: osteoclast differentiation; assay: Osteoclast differentiation in co-culture of mouse bone marrow cells and calvarial osteoblasts, TRAP staining (Examples 1-7); format: cell-based; settings: day 7
[2] = test system: osteoclast differentiation; assay: Osteoclast differentiation in co-culture of mouse bone marrow cells and ST2 cells, TRAP staining (Examples 8-9); format: cell-based; settings: for activity at 0.1 µM: Mus musculus, Osteoclast, 168 h, day 7, read-out: % number of osteoclast (vs. solvent control group); for % number of osteoclast (vs. solvent control group): day 7
Summary of the method: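 Bone marrow cells from 6-8-week male ddY mice were co-cultured with ST2 stromal cells under 10^−8 M vitamin D3 and 10^−8 M dexamethasone, with compounds at 0.1 μM final (0.1% DMSO control), refreshed on days 3 and 5. On day 7, TRAP-positive osteoclasts with ≥6 nuclei were counted and expressed as % of solvent control (n=4).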

[3] = singly treated with 0.1 μM risedronic acid
[4] = Mus musculus, Osteoclast, 168 h, individual treatment of Compound (0.1 μM), read-out: % number of osteoclast (vs. solvent control group)
[5] = combination treatment of alendronic acid (0.2 μM) with compound (0.1 μM)
[6] = combination treatment of clodronic acid (1 μM) with compound (0.1 μM)
[7] = combination treatment of etidronic acid (2 μM) with compound (0.1 μM)
[8] = combination treatment of ibandronic acid (0.1 μM) with compound (0.1 μM)
[9] = combination treatment of pamidronic acid (0.1 μM) with compound (0.1 μM)
[10] = combination treatment of risedronic acid (0.1 μM) with compound (0.1 μM)
[11] = combination treatment of zoledronic acid (0.01 μM) with compound (0.1 μM)
[12] = individual treatment of Compound (0.1 μM)
[13] = singly treated with 0.1 μM alendronic acid
[14] = Combination treatment (alendronic acid + compounds), 0.1 μM each
[15] = Combination treatment (risedronic acid + compounds), 0.1 μM each
[16] = Individual treatment (compounds), 0.1 μM

In the case of `NCCC(O)(P(=O)(O)O)P(=O)(O)O` [pamidronic acid, reference compound], the activity at 0.1 µM ([1]; Mus musculus, Osteoclast, 168 h, individual treatment of pamidronic acid (0.1 μM), read-out: % number of osteoclast (vs. solvent control group)) is reported as 82% and the “% number of osteoclast (vs. solvent control group)” value (“% number of osteoclast” below) ([1]; individual treatment of pamidronic acid (0.1 μM)) is reported as 82 ± 6.7 %.

In the case of `CC(O)(P(=O)(O)O)P(=O)(O)O` [etidronic acid, reference compound], the activity at 2 µM ([1]; Mus musculus, Osteoclast, 168 h, individual treatment of etidronic acid (2 μM), read-out: % number of osteoclast (vs. solvent control group)) is reported as 86% and the “% number of osteoclast” value ([1]; individual treatment of etidronic acid (2 μM)) is reported as 86 ± 6.9 %.

For `O=P(O)(O)C(O)(Cc1cccnc1)P(=O)(O)O` [risedronic acid, reference compound], the activity at 0.1 µM [2, 3] was 69%, the “% number of osteoclast” value [2, 3] was 69 ± 6.7 % and the activity at 0.1 µM ([1]; Mus musculus, Osteoclast, 168 h, individual treatment of risedronic acid (0.1 μM), read-out: % number of osteoclast (vs. solvent control group)) was about 82%. The “% number of osteoclast” value ([1]; individual treatment of risedronic acid (0.1 μM)) was 82 ± 5.2 %.

`CCCCCN(C)CCC(O)(P(=O)(O)O)P(=O)(O)O` [ibandronic acid, reference compound] was tested, and the activity at 0.1 µM ([1]; Mus musculus, Osteoclast, 168 h, individual treatment of ibandronic acid (0.1 μM), read-out: % number of osteoclast (vs. solvent control group)) was 77% and the “% number of osteoclast” value ([1]; individual treatment of ibandronic acid (0.1 μM)) was 77 ± 8.2 %.

`Cc1nc(-c2ccc(OCCCCCOc3ccc(C(=N)NO)c(F)c3)cc2)c(C(C)C)s1` [Compound 187, N-hydroxy-2-fluoro-4-{5-[4-(5-isopropyl-2-methyl-1,3-thiazol-4-yl)-phenoxy]-pentyloxy}-benzamidine] was tested, and the activity at 0.1 µM [1, 4] was 67%, the “% number of osteoclast” value [1, 5] was 32% and 32 ± 8.1*^#@ % and the “% number of osteoclast” value [1, 6] was 60 ± 15.2*^#@ %. For the same molecule, the “% number of osteoclast” value [1, 7] was 41% and 41 ± 7.5*^#@ %, the “% number of osteoclast” value [1, 8] was 42% and 42 ± 8.1*^#@ % and the “% number of osteoclast” value [1, 9] was 47% and 47 ± 10.5*^#@ %. For the same molecule, the “% number of osteoclast” value [1, 10] was 40% and 40 ± 6.6*^#@ %, the “% number of osteoclast” value [1, 11] was 43% and 43 ± 4.5*^#@ % and the “% number of osteoclast” value [1, 12] was 67% and 67 ± 7.4 %.

For `NCCCC(O)(P(=O)(O)O)P(=O)(O)O` [alendronic acid, reference compound], the activity at 0.1 µM [2, 13] was 76%, the “% number of osteoclast” value [2, 13] was 76 ± 6.2 % and the activity at 0.2 µM ([1]; Mus musculus, Osteoclast, 168 h, individual treatment of alendronic acid (0.2 μM), read-out: % number of osteoclast (vs. solvent control group)) was 80%. The “% number of osteoclast” value ([1]; individual treatment of alendronic acid (0.2 μM)) was 80 ± 5.7 %.

For `O=P(O)(O)C(Cl)(Cl)P(=O)(O)O` [clodronic acid, reference compound], the activity at 1 µM ([1]; Mus musculus, Osteoclast, 168 h, individual treatment of clodronic acid (1 μM), read-out: % number of osteoclast (vs. solvent control group)) was 88% and the “% number of osteoclast” value ([1]; individual treatment of clodronic acid (1 μM)) was 88 ± 9.7 %.

With `O=P(O)(O)C(O)(Cn1ccnc1)P(=O)(O)O` [zoledronic acid, reference compound] the activity at 0.01 µM ([1]; Mus musculus, Osteoclast, 168 h, individual treatment of zoledronic acid (0.01 μM), read-out: % number of osteoclast (vs. solvent control group)) was 84% and the “% number of osteoclast” value ([1]; individual treatment of zoledronic acid (0.01 μM)) was 84 ± 4.1 %.

In the case of `CCCN(CCC)c1nc(-c2ccc(OCCCCCOc3ccc(C(=N)NO)cc3)cc2)c(CC)s1` [Compound 138, N-hydroxy-4-{5-[4-(2-dipropylamino-5-ethyl-1,3-thiazol-4-yl)phenoxy]pentyloxy}-benzamidine], the “% number of osteoclast” value [2, 14] is reported as 18 ± 6.8^ab %, the “% number of osteoclast” value [2, 15] is reported as 31 ± 3.2^ac % and the activity at 0.1 µM [2, 16] is reported as 57 ± 7.2%. The activity at 0.1 µM [1, 4] was 71%, the “% number of osteoclast” value [1, 5] was 32% and 32 ± 8.9*^#@ % and the “% number of osteoclast” value [1, 6] was 54 ± 11.9*^#@ %. For the same molecule, the “% number of osteoclast” value [1, 7] was 40% and 40 ± 8.4*^#@ %, the “% number of osteoclast” value [1, 8] was 45 ± 7.6*^#@ % and the “% number of osteoclast” value [1, 9] was 42% and 42 ± 6.2*^#@ %. The “% number of osteoclast” value [1, 10] was 35% and 35 ± 8.2*^#@ %, the “% number of osteoclast” value [1, 11] was 48 ± 8.9*^#@ % and the “% number of osteoclast” value [1, 12] was 71 ± 6.5 %.

`CN(CCN1CCOCC1)c1nc(-c2ccc(OCCCCCOc3ccc(C(=N)NO)cc3)cc2)cs1` [Compound 119, N-hydroxy-4-[5-(4-{2-[methyl-(2-morpholinoethyl)amino]-1,3-thiazol-4-yl}phenoxy)pentyloxy]-benzamidine] was tested, and the “% number of osteoclast” value [2, 14] was 29 ± 4.9^ab %, the “% number of osteoclast” value [2, 15] was 29 ± 8.7^ac % and the activity at 0.1 µM [2, 16] was 78 ± 9%. The activity at 0.1 µM [1, 4] was 66%, the “% number of osteoclast” value [1, 5] was 29% and 29 ± 5.3*^#@ % and the “% number of osteoclast” value [1, 6] was 47% and 47 ± 13.0*^#@ %. The “% number of osteoclast” value [1, 7] was 38% and 38 ± 8.2*^#@ %, the “% number of osteoclast” value [1, 8] was 36 ± 9.8*^#@ % and the “% number of osteoclast” value [1, 9] was 37% and 37 ± 5.0*^#@ %. The “% number of osteoclast” value [1, 10] was 38% and 38 ± 6.8*^#@ %, the “% number of osteoclast” value [1, 11] was 42 ± 8.1*^#@ % and the “% number of osteoclast” value [1, 12] was 66 ± 8.3 %.

For `CCCCNCc1sc(C)nc1-c1ccc(OCCCCCOc2ccc(C(=N)NO)cc2)cc1` [Compound 298, N-hydroxy-4-{5-[4-(5-butylaminomethyl-2-methyl-thiazol-4-yl)-phenoxy]-pentyloxy}-benzamidine], the “% number of osteoclast” value [2, 14] was 16 ± 3.3^ab %, the “% number of osteoclast” value [2, 15] was 8 ± 2.9^ac % and the activity at 0.1 µM [2, 16] was 55 ± 6.1%.

For `CC(C)c1sc(N2CCOCC2)nc1-c1ccc(OCCCCCOc2ccc(C(=N)NO)cc2)cc1` [Compound 169, N-hydroxy-4-{5-[4-(5-isopropyl-2-morpholino-1,3-thiazol-4-yl)phenoxy]pentyloxy}-benzamidine], the activity at 0.1 µM [1, 4] was 78%, the “% number of osteoclast” value [1, 5] was 44% and 44 ± 7.4*^#@ % and the “% number of osteoclast” value [1, 6] was 59% and 59 ± 14.0*^#@ %. The “% number of osteoclast” value [1, 7] was 49% and 49 ± 9.7*^#@ %, the “% number of osteoclast” value [1, 8] was 54 ± 8.7*^#@ % and the “% number of osteoclast” value [1, 9] was 50% and 50 ± 8.7*^#@ %. The “% number of osteoclast” value [1, 10] was 42% and 42 ± 7.6*^#@ %, the “% number of osteoclast” value [1, 11] was 59 ± 8.2*^#@ % and the “% number of osteoclast” value [1, 12] was 78 ± 8.6 %.

With `CCNc1nc(-c2ccc(OCCCCCOc3ccc(C(=N)NO)cc3)cc2)c(CC)s1` [Compound 97, N-hydroxy-4-{5-[4-(5-ethyl-2-ethylamino-1,3-thiazol-4-yl)phenoxy]pentyloxy}-benzamidine] the “% number of osteoclast” value [2, 14] was 30 ± 5.7^ab %, the “% number of osteoclast” value [2, 15] was 13 ± 4.3^ac % and the activity at 0.1 µM [2, 16] was 57 ± 5.2%.

`Cc1nc(-c2ccc(OCCCCCOc3ccc(C(=N)NO)cc3)cc2)c(CNCCN2CCOCC2)s1` [Compound 302, N-hydroxy-4-[5-(4-{2-methyl-5-[(2-morpholin-4-yl-ethylamino)-methyl]-thiazol-4-yl}-phenoxy)-pentyloxy]-benzamidine] was tested, and the “% number of osteoclast” value [2, 14] was 16 ± 4.5^ab %, the “% number of osteoclast” value [2, 15] was 9 ± 2.8^ac % and the activity at 0.1 µM [2, 16] was 59 ± 10.6%.

`CNc1nc(-c2ccc(OCCCCCOc3ccc(C(=N)NO)cc3)cc2)c(CCN2CCSCC2)s1` [Compound 262, N-hydroxy-4-(5-{4-[2-methylamino-5-(2-thiomorpholin-4-yl-ethyl)-thiazol-4-yl]-phenoxy}-pentyloxy)-benzamidine] was tested, and the “% number of osteoclast” value [2, 14] was 24 ± 2.6^ab %, the “% number of osteoclast” value [2, 15] was 7 ± 4.9^ac % and the activity at 0.1 µM [2, 16] was 47 ± 4.2%.

In the case of `CCCNCc1sc(C)nc1-c1ccc(OCCCCCOc2ccc(C(=N)NO)cc2)cc1` [Compound 301, N-hydroxy-4-{5-[4-(2-methyl-5-propylaminomethyl-thiazol-4-yl)-phenoxy]-pentyloxy}-benzamidine], the “% number of osteoclast” value [2, 14] is reported as 10 ± 2.3^ab %, the “% number of osteoclast” value [2, 15] is reported as 6 ± 2.3^ac % and the activity at 0.1 µM [2, 16] is reported as 49 ± 5.1%.
